Assay results taken from ChEMBL document CHEMBL2331425, “Triazolo and imidazo dihydropyrazolopyrimidine potassium channel antagonists” (Bioorg Med Chem Lett, 2013).
Values belong to the compound of their own block, whether it stands above or below them.

Columns and labels:
[1] = target: T1, Potassium voltage-gated channel subfamily A member 5 (Homo sapiens, UniProt P22460); test: Antagonist activity at human Kv1.5 expressed in mouse L929 cells assessed as inhibition of delayed rectifier repolarization current by patch clamp assay; format: cell-based
T1 sequence (P22460 whole entry): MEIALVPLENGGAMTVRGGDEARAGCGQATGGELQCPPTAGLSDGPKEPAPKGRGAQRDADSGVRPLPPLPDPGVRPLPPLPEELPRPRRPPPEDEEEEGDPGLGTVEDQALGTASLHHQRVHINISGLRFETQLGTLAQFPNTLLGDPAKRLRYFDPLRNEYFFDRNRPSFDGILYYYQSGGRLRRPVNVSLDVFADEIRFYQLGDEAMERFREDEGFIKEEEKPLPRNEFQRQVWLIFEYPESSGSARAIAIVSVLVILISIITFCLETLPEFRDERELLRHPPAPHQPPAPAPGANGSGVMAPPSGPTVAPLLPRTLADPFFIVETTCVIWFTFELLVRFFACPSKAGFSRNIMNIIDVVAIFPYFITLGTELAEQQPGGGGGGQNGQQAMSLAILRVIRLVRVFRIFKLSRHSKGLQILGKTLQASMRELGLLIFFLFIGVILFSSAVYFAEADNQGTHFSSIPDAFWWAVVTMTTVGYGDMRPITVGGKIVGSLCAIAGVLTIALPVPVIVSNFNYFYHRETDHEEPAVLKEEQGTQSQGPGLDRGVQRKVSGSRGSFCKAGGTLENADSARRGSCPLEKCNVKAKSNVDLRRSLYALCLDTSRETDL

Cytochrome P450 1A2 = target: T2, Cytochrome P450 1A2 (Homo sapiens, UniProt P05177); test: Inhibition of CYP1A2 (unknown origin); format: ADME
T2 sequence (P05177 whole entry): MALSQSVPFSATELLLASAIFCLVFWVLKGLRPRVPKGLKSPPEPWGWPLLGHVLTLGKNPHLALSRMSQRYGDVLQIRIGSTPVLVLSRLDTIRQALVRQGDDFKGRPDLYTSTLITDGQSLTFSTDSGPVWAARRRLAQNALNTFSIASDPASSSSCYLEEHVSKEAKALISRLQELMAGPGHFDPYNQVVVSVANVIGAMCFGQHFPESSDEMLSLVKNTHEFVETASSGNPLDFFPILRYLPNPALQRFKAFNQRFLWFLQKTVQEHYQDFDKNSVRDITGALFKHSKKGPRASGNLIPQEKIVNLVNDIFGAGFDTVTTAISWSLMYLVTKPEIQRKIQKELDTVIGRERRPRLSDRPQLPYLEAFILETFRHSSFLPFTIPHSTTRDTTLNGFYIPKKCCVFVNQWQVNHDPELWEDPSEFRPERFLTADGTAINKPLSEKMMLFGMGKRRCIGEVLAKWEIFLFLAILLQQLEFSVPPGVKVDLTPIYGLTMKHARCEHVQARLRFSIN

Cytochrome P450 2C9 = Cytochrome P450 2C9 (Homo sapiens, UniProt P11712); test: Inhibition of CYP2C9 (unknown origin); format: ADME
Sequence of Cytochrome P450 2C9 (P11712 whole entry): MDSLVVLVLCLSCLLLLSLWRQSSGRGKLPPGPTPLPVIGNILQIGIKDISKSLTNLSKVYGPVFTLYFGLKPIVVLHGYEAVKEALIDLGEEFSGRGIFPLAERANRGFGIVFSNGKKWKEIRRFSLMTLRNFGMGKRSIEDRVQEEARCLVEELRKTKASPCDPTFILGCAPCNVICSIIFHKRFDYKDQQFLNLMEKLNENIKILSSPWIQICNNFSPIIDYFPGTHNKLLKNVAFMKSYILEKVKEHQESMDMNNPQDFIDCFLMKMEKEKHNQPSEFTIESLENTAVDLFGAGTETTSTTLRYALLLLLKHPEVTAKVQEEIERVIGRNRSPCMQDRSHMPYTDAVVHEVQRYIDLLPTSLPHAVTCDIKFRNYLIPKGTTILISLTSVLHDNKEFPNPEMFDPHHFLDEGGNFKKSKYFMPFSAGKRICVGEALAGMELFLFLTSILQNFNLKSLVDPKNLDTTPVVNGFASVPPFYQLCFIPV

Cytochrome P450 2C19 = Cytochrome P450 2C19 (Homo sapiens, UniProt P33261); test: Inhibition of CYP2C19 (unknown origin); format: ADME
Sequence of Cytochrome P450 2C19 (P33261 whole entry): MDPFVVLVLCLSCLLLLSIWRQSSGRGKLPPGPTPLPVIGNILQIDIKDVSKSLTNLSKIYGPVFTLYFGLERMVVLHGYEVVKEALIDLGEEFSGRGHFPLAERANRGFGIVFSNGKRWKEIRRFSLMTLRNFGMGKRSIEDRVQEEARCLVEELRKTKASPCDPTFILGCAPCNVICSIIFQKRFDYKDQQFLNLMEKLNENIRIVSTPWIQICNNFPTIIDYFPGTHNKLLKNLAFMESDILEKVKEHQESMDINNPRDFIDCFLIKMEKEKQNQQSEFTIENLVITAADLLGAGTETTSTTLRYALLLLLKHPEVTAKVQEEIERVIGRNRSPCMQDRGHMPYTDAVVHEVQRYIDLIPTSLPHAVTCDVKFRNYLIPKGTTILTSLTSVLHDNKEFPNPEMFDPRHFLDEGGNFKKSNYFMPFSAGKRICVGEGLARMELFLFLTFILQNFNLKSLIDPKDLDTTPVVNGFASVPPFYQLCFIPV

Cytochrome P450 3A4 = Cytochrome P450 3A4 (Homo sapiens, UniProt P08684); test: Inhibition of CYP3A4 (unknown origin); format: ADME
Sequence of Cytochrome P450 3A4 (P08684 whole entry): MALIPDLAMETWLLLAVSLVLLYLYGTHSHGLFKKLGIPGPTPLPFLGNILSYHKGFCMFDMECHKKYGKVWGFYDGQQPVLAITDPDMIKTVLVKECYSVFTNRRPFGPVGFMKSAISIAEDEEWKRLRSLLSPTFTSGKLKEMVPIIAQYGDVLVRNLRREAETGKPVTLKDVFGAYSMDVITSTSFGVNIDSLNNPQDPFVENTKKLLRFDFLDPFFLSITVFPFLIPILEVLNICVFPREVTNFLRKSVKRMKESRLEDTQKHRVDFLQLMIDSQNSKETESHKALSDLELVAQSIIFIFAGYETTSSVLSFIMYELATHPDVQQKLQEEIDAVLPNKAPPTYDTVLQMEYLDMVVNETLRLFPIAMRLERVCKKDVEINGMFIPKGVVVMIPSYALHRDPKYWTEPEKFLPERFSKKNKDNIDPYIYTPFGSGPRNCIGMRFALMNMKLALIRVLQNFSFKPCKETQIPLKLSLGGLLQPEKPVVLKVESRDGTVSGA

Cytochrome P450 2D6 = Cytochrome P450 2D6 (Homo sapiens, UniProt P10635); test: Inhibition of CYP2D6 (unknown origin); format: ADME
Sequence of Cytochrome P450 2D6 (P10635 whole entry): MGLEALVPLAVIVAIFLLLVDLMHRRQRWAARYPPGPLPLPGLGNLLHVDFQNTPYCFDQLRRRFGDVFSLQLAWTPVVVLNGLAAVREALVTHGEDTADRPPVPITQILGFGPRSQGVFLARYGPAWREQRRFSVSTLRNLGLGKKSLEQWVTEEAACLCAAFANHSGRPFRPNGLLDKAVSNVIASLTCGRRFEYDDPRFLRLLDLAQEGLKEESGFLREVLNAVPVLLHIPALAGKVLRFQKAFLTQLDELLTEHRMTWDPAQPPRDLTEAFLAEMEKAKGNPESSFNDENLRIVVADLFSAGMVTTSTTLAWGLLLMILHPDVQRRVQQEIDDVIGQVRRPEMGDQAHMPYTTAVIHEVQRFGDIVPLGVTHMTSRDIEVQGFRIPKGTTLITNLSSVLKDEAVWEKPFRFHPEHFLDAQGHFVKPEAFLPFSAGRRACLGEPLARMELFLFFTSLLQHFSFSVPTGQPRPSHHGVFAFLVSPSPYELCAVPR

[2] = target: T3, Nuclear receptor subfamily 1 group I member 2 (Homo sapiens, UniProt O75469); test: Transactivation of PXR (unknown origin)
T3 sequence (O75469 whole entry): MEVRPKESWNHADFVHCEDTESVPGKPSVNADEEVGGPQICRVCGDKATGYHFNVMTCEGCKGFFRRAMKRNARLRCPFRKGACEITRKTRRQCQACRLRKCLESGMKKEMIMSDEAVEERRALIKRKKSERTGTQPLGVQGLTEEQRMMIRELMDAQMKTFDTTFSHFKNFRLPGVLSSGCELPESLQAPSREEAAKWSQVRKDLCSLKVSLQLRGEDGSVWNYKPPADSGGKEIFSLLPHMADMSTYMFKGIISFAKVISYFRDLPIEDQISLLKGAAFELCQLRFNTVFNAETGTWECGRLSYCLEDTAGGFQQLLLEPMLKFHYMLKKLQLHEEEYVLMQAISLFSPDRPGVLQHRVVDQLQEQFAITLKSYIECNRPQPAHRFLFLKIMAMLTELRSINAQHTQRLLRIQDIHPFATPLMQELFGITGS

[3] = target: T1, Potassium voltage-gated channel subfamily A member 5; test: Antagonist activity at human Kv1.5 expressed in mouse L929 cells assessed as inhibition of delayed rectifier repolarization current at 0.3 uM by patch clamp assay relative to control; format: cell-based
[4] = target: Voltage-gated inwardly rectifying potassium channel KCNH2 (Homo sapiens, UniProt Q12809); test: Inhibition of human ERG current in HEK293 cells by patch clamp method; format: cell-based
Sequence of Voltage-gated inwardly rectifying potassium channel KCNH2 (Q12809 whole entry): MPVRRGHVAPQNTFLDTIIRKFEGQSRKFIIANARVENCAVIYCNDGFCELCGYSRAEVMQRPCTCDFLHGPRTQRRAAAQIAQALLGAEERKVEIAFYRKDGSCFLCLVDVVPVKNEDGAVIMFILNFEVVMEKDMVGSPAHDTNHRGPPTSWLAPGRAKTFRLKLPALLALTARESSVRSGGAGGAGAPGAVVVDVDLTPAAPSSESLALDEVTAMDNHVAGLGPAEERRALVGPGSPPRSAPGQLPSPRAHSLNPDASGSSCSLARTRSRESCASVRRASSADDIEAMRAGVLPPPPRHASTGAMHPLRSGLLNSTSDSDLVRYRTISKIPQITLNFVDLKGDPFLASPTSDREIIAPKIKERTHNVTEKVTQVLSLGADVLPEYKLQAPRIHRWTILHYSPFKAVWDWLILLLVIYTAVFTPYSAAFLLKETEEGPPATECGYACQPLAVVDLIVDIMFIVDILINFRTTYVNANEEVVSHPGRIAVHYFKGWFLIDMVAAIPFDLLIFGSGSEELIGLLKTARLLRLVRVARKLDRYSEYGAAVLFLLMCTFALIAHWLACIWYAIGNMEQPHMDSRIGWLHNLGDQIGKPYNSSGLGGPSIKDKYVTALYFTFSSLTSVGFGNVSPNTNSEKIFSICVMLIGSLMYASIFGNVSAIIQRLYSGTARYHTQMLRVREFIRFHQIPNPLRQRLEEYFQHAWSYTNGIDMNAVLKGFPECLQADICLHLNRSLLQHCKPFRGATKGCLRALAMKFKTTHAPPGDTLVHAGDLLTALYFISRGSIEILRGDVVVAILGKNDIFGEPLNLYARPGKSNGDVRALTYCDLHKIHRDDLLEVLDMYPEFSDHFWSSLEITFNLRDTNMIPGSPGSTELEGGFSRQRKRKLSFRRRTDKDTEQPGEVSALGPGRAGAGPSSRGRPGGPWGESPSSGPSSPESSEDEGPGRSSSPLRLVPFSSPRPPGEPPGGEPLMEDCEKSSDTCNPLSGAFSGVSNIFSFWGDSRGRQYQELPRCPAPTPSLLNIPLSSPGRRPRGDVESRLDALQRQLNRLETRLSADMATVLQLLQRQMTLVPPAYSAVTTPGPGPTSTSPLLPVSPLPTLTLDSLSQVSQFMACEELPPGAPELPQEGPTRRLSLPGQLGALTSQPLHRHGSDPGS

hERG (KCNH2) = hERG (KCNH2) (Homo sapiens, UniProt Q12809); test: Inhibition of human ERG current in HEK293 cells at 10 uM by patch clamp method relative to control; format: cell-based; conditions: HEK293 cells expressing human ERG
Sequence of hERG (KCNH2) (Q12809 whole entry, the tested form may be a part): as the sequence (Q12809 whole entry) above

Rattus norvegicus [5] = test: Antiarrhythmic activity in Sprague-Dawley rat assessed as decrease in ventricular effective refractory period at 0.3 mg/kg, iv administered as 5 mins infusion measured after 5 mins relative to control; format: functional, Heart; design: scale not given: the % may be the effect or the level left
[6] = target: Voltage-gated L-type calcium channel (Homo sapiens, UniProt Q13936+Q13698+Q01668+O60840); test: Inhibition of L-type calcium channel (unknown origin)
[7] = Plasma concentration in Sprague-Dawley rat at 0.3 mg/kg, iv administered as 5 mins infusion measured after 10 mins; format: ADME, organism-based; design: dose 0.3 mg/kg, route intravenous
[8] = Drug uptake in Sprague-Dawley rat brain at 0.3 mg/kg, iv administered as 5 mins infusion measured after 10 mins; format: ADME, organism-based; design: dose 0.3 mg/kg, route intravenous; conditions: read-out: Drug uptake
[9] = Plasma concentration in Sprague-Dawley rat at 0.3 mg/kg, iv administered as 5 mins infusion measured at 5 mins; format: ADME, organism-based; design: dose 0.3 mg/kg, route intravenous
[10] = Clearance in Sprague-Dawley rat at 1 mg/kg, iv; format: ADME, organism-based; design: dose 1 mg/kg, route intravenous; conditions: in vivo
Rattus norvegicus [11] = test: Antiarrhythmic activity in Sprague-Dawley rat assessed as decrease in QT interval at 0.3 mg/kg, iv administered as 5 mins infusion measured after 5 mins relative to control; format: functional, Heart; design: scale not given: the % may be the effect or the level left
[12] = Inhibition of sodium channel (unknown origin); design: species or system Homo sapiens
Rattus norvegicus [13] = test: Antiarrhythmic activity in Sprague-Dawley rat assessed as increase in heart rate at 0.3 mg/kg, iv administered as 5 mins infusion measured after 5 mins relative to control; format: functional
[14] = Half life in Sprague-Dawley rat at 1 mg/kg, iv; format: ADME, organism-based; design: dose 1 mg/kg, route intravenous; conditions: in vivo
Rattus norvegicus [15] = test: Antiarrhythmic activity in Sprague-Dawley rat assessed as decrease in blood pressure at 0.3 mg/kg, iv administered as 5 mins infusion measured after 5 mins; format: functional; design: scale not given: the % may be the effect or the level left

IC50 [1]: 0.048 µM
SMILES: CC1=C(c2ncnn2C2CCC2)[C@@H](c2ccc(Cl)c(Cl)c2)n2nccc2N1

inhibition [3]: 25%
SMILES: CC1=C(c2ncnn2-c2ccc(C)cc2)[C@@H](c2ccc(Cl)c(Cl)c2)n2nc(C)cc2N1

inhibition [3]: 6%
SMILES: CC1=C(c2ncnn2CCO)[C@@H](c2ccc(Cl)c(Cl)c2)n2nccc2N1

IC50 [1]: 0.135 µM
SMILES: CC1=C(c2ncnn2Cc2ccccc2)[C@@H](c2ccc(Cl)c(Cl)c2)n2nccc2N1

IC50 [1]: 0.115 µM
SMILES: CC1=C(c2ncnn2-c2ccc(F)cc2)[C@@H](c2ccc(Cl)c(Cl)c2)n2nccc2N1

IC50 [1]: 0.103 µM
SMILES: CC1=C(c2ncnn2CCCC(F)(F)F)[C@@H](c2ccc(Cl)c(Cl)c2)n2nccc2N1

IC50 [1]: 0.096 µM
EC20 [2]: 0.14 µM
SMILES: CC1=C(c2ncnn2-c2cccc(C(F)(F)F)n2)[C@@H](c2ccc(Cl)c(Cl)c2)n2nc(C(F)(F)F)cc2N1

IC50 [1]: 0.223 µM
EC20 [2]: 1.1 µM
SMILES: CCOc1cccc(-n2ncnc2C2=C(C)Nc3cc(C(F)(F)F)nn3[C@@H]2c2ccc(Cl)c(Cl)c2)n1

IC50 [1]: 0.037 µM
SMILES: CC1=C(c2ncnn2C2CCCC2)[C@@H](c2ccc(Cl)c(Cl)c2)n2nccc2N1
INH [4]: 6 µM

inhibition [3]: 14%
SMILES: COc1cccc(-n2cnc(C3=C(C)Nc4cc(C)nn4[C@@H]3c3ccc(Cl)c(Cl)c3)n2)c1

IC50 [1]: 0.102 µM
SMILES: CCCn1ncnc1C1=C(C)Nc2ccnn2[C@@H]1c1ccc(Cl)c(Cl)c1

IC50 [1]: 0.087 µM
EC20 [2]: 0.96 µM
SMILES: COc1cccc(-n2ncnc2C2=C(C)Nc3cc(C(F)(F)F)nn3[C@@H]2c2ccc(Cl)c(Cl)c2)n1
inhibition at 10 µM (hERG (KCNH2)): 98%

IC50 [1]: 0.133 µM
IC50 [6]: 5.2 µM
concentration at 10 min [7]: 430 nM
concentration at 10 min [8]: 30 nM
concentration at 5 min [9]: 1600 nM
INH (Cytochrome P450 2C9): 7 µM
clearance [10]: 29 mL/min/kg
IC50 [12]: 46 µM
INH (Cytochrome P450 2C19): 6 µM
INH (Cytochrome P450 3A4): 40 µM
INH (Cytochrome P450 2D6): 22 µM
half-life [14]: 1.2 h
EC20 [2]: 5 µM
SMILES: CC1=C(c2ncnn2C2CCC(C(F)(F)F)CC2)[C@@H](c2ccc(Cl)c(Cl)c2)n2nc(C(F)(F)F)cc2N1 (single isomer, unassigned; isomer 1)
Activity (Rattus norvegicus [5]): 25%
inhibition at 10 µM (hERG (KCNH2)): 38%
Activity (Rattus norvegicus [11]): 8%
Activity (Rattus norvegicus [13]): 6%
Activity (Rattus norvegicus [15]): 28%

Second part, the compound before the results:

SMILES: CC1=C(c2ncnn2-c2ccc(C)cn2)[C@@H](c2ccc(Cl)c(Cl)c2)n2nc(C(F)(F)F)cc2N1
IC50 [1]: 0.389 µM

SMILES: CC1=C(c2ncnn2C2CCC(C(F)(F)F)CC2)[C@@H](c2ccc(Cl)c(Cl)c2)n2nc(C(F)(F)F)cc2N1 (single isomer, unassigned; isomer 2)
IC50 [1]: 0.607 µM
INH (Cytochrome P450 1A2): 40 µM
INH (Cytochrome P450 2C9): 8 µM
INH (Cytochrome P450 2C19): 7 µM
INH (Cytochrome P450 3A4): 25 µM
INH (Cytochrome P450 2D6): 27 µM
EC20 [2]: 3.6 µM

SMILES: CC1=C(c2ncnn2CC(F)(F)F)[C@@H](c2ccc(Cl)c(Cl)c2)n2nccc2N1
IC50 [1]: 0.2 µM

SMILES: CC1=C(c2ncnn2CCC(F)(F)F)[C@@H](c2ccc(Cl)c(Cl)c2)n2nccc2N1
IC50 [1]: 0.151 µM

SMILES: COc1ccccc1-n1cnc(C2=C(C)Nc3cc(C)nn3[C@@H]2c2ccc(Cl)c(Cl)c2)n1
inhibition [3]: 4%

SMILES: CC1=C(c2ncn[nH]2)[C@@H](c2ccc(Cl)c(Cl)c2)n2nccc2N1
inhibition [3]: 8%

SMILES: COc1ccccc1-n1ncnc1C1=C(C)Nc2ccnn2[C@@H]1c1ccc(Cl)c(Cl)c1
IC50 [1]: 0.116 µM

SMILES: CC1=C(c2ncnn2-c2cccc(C)n2)[C@@H](c2ccc(Cl)c(Cl)c2)n2nc(C(F)(F)F)cc2N1
IC50 [1]: 0.211 µM
EC20 [2]: 0.44 µM

SMILES: CC1=C(c2ncnn2C2CCCCC2)[C@@H](c2ccc(Cl)c(Cl)c2)n2nccc2N1
inhibition at 10 µM (hERG (KCNH2)): 87%
IC50 [1]: 0.059 µM

SMILES: COc1ccc(-n2cnc(C3=C(C)Nc4cc(C)nn4[C@@H]3c3ccc(Cl)c(Cl)c3)n2)cc1
inhibition [3]: 5%
